Marks after values point to notes of the source that are not given here.
Columns and labels:
[1] = test system: female C57BL/6 mice; test: Risedronate treatment of radiation-induced bone loss in mice, microCT (Example 4); type: in vivo; details: 2 Gy whole body X-rays
[2] = test system: TRAP5b; test: Serum TRAP5b ELISA, irradiated mice treated with risedronate (Example 4b); type: in vivo; details: 2 Gy irradiated mice, risedronate 30 μg/kg every other day, 7, 14 and 21 days
Method: (§1) Tissue collection: 12 individuals from each group were sacrificed at 1, 2, and 3 weeks following the initial radiation exposure. Each mouse weighed then anesthetized using isoflurane, and blood was collected for serum analysis by cardiac puncture and exsanguination followed by cervical dislocation to ensure death. Serum was isolated by centrifugation, flash frozen in liquid nitrogen, and stored at −80° C. The left and right hind limbs as well as the vertebral column were collected for analysis. Hind limbs were removed and disarticulated. Tibiae and femora were cleaned of soft tissue and fixed in a solution of 10% formalin. After 48 hours, the bones were placed in 70% ethanol. The vertebral column was frozen at −20° C. to ensure microcomputed tomography (microCT) analysis of the fifth lumbar vertebrae (L5).
(§2) Serum Chemistry: Serum samples were analyzed for circulating markers of bone formation and resorption. ELISA kits for osteocalcin (Biomedical Technologies, Inc., Stoughton, Mass.) and tartrate-resistant acid phosphatase (TRAP5b) (Immunodiagnostic Systems, Inc., Fountain Hills, Az.), respectively. The analyses were performed according to protocols provided by the manufacturers.

[3] = test system: osteocalcin; test: Serum osteocalcin ELISA, irradiated mice treated with risedronate (Example 4b); type: in vivo; details: 2 Gy irradiated mice; risedronate 30 μg/kg every other day
Method: as §1, §2

[4] = test system: osteoclasts; test: Histological analysis of osteoclast surface (TRAP staining), proximal tibia trabecular bone (Example 4c); type: in vivo, mice; details: one week after exposure, but not two and three weeks; 2 Gy; risedronate 30 micrograms/kg every other day; versus non-irradiated control
Description: Osteoclast Identification: Following tomographic analysis, the left tibiae were decalcified using a formic acid solution (Immunocal; Decal Chemical Corp., Talman, N.Y.) and embedded in a glycol methacrylate resin (ImmunoBed™; Polysciences, Wasrrington, Pa.). The samples were cut into sagittal sections with a thickness of 3 μm. A subset of each group (n=5-6) was selected for analysis. Each slide was stained with TRAP using a commercial kit (Sigma, St. Louis, Mo.) to identify osteoclasts and counterstained with hematoxylin, Radiographs assessed the earliest time point of complete decalcification. […] Osteoclast presence was determined by tartrate resistant acid phosphatase (TRAP) staining of the slides using a commercial kit (Sigma; St. Louis, Mo.) and then counterstaining with hematoxylin (Sigma).
Histomorphometric evaluation was performed from captured micrographs (200×) throughout the metaphysis, starting approximately 0.25 mm distal from the growth plate (in order to exclude the primary spongiosa) and extending a further 0.5 mm. Bone histomorphometric parameters for the proximal metaphysis of the tibia were measured as described in the report of the American Society of Bone and Mineral Research (ASBMR) Histomophometry Nomenclature Committee (22). Surface measurements were quantified relative to total bone surface (BS). […]

[5] = test system: female Sprague-Dawley rats; test: Rat model, clinically-modeled radiation dose regimen with risedronate, tibia microCT (Example 5); type: in vivo; details: risedronate 0.1 mg/kg/week subcutaneously; for Conn. Dens. (connectivity density) / SMI (structural model index) / Tb. N. (trabecular number) / Tb. Sp. (trabecular spacing) / Tb. Th (trabecular thickness) / BV/TV (bone volume fraction): mean ± SEM
Description: The right hindlimb from twenty-one week old female Sprague-Dawley rats were irradiated using a clinical irradiator (linear accelerator; LINAC; Wake Forest University). The dose applied was 16 Gy given as 4 fractions of 4 Gy each. This dose is the equivalent in terms of biological impacts on the hip during the course of radiation therapy for cancer, as determined by radiation biophysicists. Irradiations (all four total) were provided over the course of two weeks. Animals either received no radiation, radiation only, or radiation+risedronate injection (0.1 mg/kg/week subcutaneously). Administration of risedronate was provided one day prior to the first irradiation, then three times per week until sacrifice.
Animals were sacrificed two and four weeks after exposure. Hindlimbs were removed, and the tibiae were examined via microCT for several parameters. Meanings of the following trabecular parameters as they relate with conditions of increased resorption or atrophy are provided in Example 3 Methods Section: BV/TV; connectivity density (Conn.Dens.); trabecular thickness (Tb.Th.); trabecular number (Tb.N); and trabecular spacing (Tb.S.) were again determined. All measurements were taken within a region extending 1 mm distal to the growth plate.

[6] = test system: rats; details: 0.1 mg/kg/week administered subcutaneously; cited from earlier work
[7] = test system: aged rats; details: aged rats (9 months then allowed to mature 60 days); 0.02 or 0.04 mg/kg/wk; cited from earlier work
[8] = test system: OVX rat; details: OVX rats; administered orally; cited from earlier work
[9] = test system: minipigs; details: 2.5 vs 0.5 mg/kg/day oral; cited from earlier work
[10] = realistic order stated in text; 1% assumed for dose conversion; cited from earlier work
[11] = test system: female B6 mice; test: High dose zoledronate against radiation-induced bone loss in mice, microCT (Example 6); type: in vivo; details: for radiation-induced bone loss: 12-week-old mice, 2 Gy whole body X-rays, single 10 mg/kg dose of zoledronate, microCT 2 weeks after irradiation, 10 mg/kg
Method: The antiresorptive bisphosphonate zoledronate was selected as representative of the class of antiresorptive agents and was tested, at high doses of 10 mg/kg, for its ability to prevent radiation-induced bone loss.
12-week-old female B6 mice were either 1) not irradiated and treated with a placebo injection, 2) irradiated with a 2 Gy whole body dose of X-rays and treated with a placebo injection, or 3) irradiated with a 2 Gy whole body dose of X-rays and treated with a single 10 mg/kg dose of […]. Bones were collected and examined by microCT 2 weeks after irradiation and zoledronate injection.

[12] = cited from earlier work
[13] = risedronate 30 μg/kg subcutaneous every other day
[14] = 2 Week Examination, 16 Gy (4 x 4 Gy)
[15] = 4 Week Examination, 16 Gy (4 x 4 Gy)

## O=P(O)(O)C(O)(Cc1cccnc1)P(=O)(O)O [risedronate]
[1]; [13]
  radiation-induced bone loss at the 5th lumbar vertebra (FIG. 13): prevents rapid radiation-induced bone loss
  radiation-induced bone loss at the distal femur (FIG. 12): prevents rapid radiation-induced bone loss
[1]; risedronate 30 μg/kg/injection subcutaneous every other day, 1, 2 and 3 weeks
  radiation-induced bone loss (proximal tibia, distal femur and 5th lumbar vertebra): prevents radiation-induced bone loss
[2]
  serum TRAP5b levels (marker for osteoclast activity): reduced at all time points
[2]; listed as Risedronate
  serum TRAP5b levels (marker for osteoclast activity): reduced TRAP5b levels at all time points
[3]
  serum osteocalcin levels (marker for bone formation): trended to decrease levels
[4]
  osteoclast surface, proximal tibia trabecular bone: greater osteoclast surface
[5]; [14]
  Conn. Dens. (connectivity density): 95.4 ± 4.4^b l/mm^3
  SMI (structural model index): 0.83 ± 0.07^e
  Tb. N. (trabecular number): 4.02 ± 0.11^g
  Tb. Sp. (trabecular spacing): 216 ± 8^g μm
  Tb. Th (trabecular thickness): 90.1 ± 1.4^b
[5]; 2 Week Examination, right hindlimb 16 Gy (4 fractions of 4 Gy), tibia microCT
  BV/TV (bone volume fraction): 31.9 ± 0.79^e %
[5]; 2 weeks, rats, 16 Gy
  effect on radiation-induced trabecular deterioration relative with control: largely mitigated these changes
[5]; 2 weeks, rats
  sparing effect on connectivity of the trabeculae compared with the differences after only receiving radiation: 12%
[5]; [15]
  BV/TV (bone volume fraction): 34.4 ± 1.2^b,^f %
  Conn. Dens. (connectivity density): 109.3 ± 4.6^e l/mm^3
  SMI (structural model index): 0.68 ± 0.12^a,^f
  Tb. N. (trabecular number): 4.37 ± 0.09^f
  Tb. Sp. (trabecular spacing): 193 ± 5^f μm
  Tb. Th (trabecular thickness): 90.9 ± 1.1^c,^h
[5]; Week 4, rats, 16 Gy
  evidence of trabecular deterioration via microCT relative with control: has disappeared by Week 4
[6]
  bone volume and fraction in GIO: increased bone volume and fraction by reducing turnover
[7]
  histomorphometric changes in the tibial diaphysis: no histomorphometric changes
[8]
  oral doses at which improvement in bone mineral density and preservation of microarchitecture generally occurred: greater than 0.5 mg/kg/day
[9]
  preserving architecture, comparison of oral doses: more pronounced in animal models (minipigs) using 2.5 mg/kg/day than 0.5 mg/kg/day
[10]
  oral bioavailability: 0.5-0.7%

## O=P(O)(O)C(O)(Cn1ccnc1)P(=O)(O)O [zoledronate]
[11]
  radiation-induced bone loss: prevents radiation-induced bone loss
[11]; listed as Zoledronate
  radiation-induced bone loss: prevented the bone loss
[11]; growing mice, 2 Gy, single 10 mg/kg zoledronate, 2 weeks
  bone mass versus untreated, non-irradiated levels: increased to greater than untreated, non-irradiated levels

## Denosumab: fully human anti-RANKL antibody that binds RANK ligand and blocks its binding to RANK, formerly AMG162 (Amgen)
[12]; 0.01 mg/kg and 0.03 mg/kg
  effect of low doses on markers for bone formation: reduced markers for bone formation, but for only temporary periods
[12]; 0.3, 1.0 and 3.0 mg/kg
  duration of efficacy: > 30 days
  performance compared with standard 90 mg dose of pamidronate: performed similarly
